{
  "source": "patent US6015560A",
  "about": "“Antibody recognizing endothelial cell ligand for leukocyte CR3” (priority 1995, dated 2000)",
  "system": "leukocytes in CSF",
  "assay": "Rat meningitis model (LOS): CSF leukocytosis",
  "type": "in vivo",
  "conditions": "4 hours",
  "procedure": "The experiments were performed according to established protocols (Wispelway et al., 1988, J. Clin. Invest., 82: 1339-1346). Purified Haemophilus influenzae type b strain DL42 lipooligosaccharide (LOS) was prepared for inoculation by sonication for 30 minutes, dilution to the desired concentration (20 ng/50 μl) in normal saline or PBS, and sonication for an additional 15 to 30 minutes just prior to use.\nBriefly, anesthetized female Wistar rats were placed under a micromanipulator and inoculated intracisternally with a 25 gauge needle. After removal of 50 μl of CSF (without visible blood contamination), rats were inoculated intracisternally with 50 μl (20 ng) of LOS using a 1 ml syringe with a 25 gauge needle. Ten to fifteen minutes after inoculation with LOS, the rats were treated by intravenous administration of the test substance: a solution of an FHA peptide in PBS, a solution of a control peptide in PBS, or an equal volume of PBS alone.\nThree hours after LOS inoculation, 5 μCi of ^125 I-radiolabelled albumin in 50 μl normal saline was administered intravenously. One hour later, CSF was collected via intracisternal puncture and blood samples were collected via intracardiac puncture. CSF leukocytosis was determined by manually counting white blood cells using a hemacytometer, and blood-brain barrier permeability was determined as the percent of radioactivity in whole blood that was present in the CSF. Blood samples were obtained immediately prior to inoculation, immediately prior to treatment, and at 4 hours post-inoculation for determination of peripheral white blood cell concentrations.",
  "data": [
    {"substance": "Ac-VEEDTKG-NH2 [scrambled ac/am FHA II, VEEDTKG, reference compound]", "values": [
      {"measurement": "Leukocytosis (CSF leukocyte concentration)", "setting": "600 nmol i.v.", "result": "14,287 ± 10,199 cells/ml"}
    ]},
    {"substance": "IDVPQHGGAMRDLGIAQGKD [scrambled FHA Ca, reference compound]", "values": [
      {"measurement": "Leukocytosis (CSF leukocyte concentration)", "setting": "100 nmol i.v.", "result": "20,700 ± 7,400 cells/ml"}
    ]}
  ]
}
